Measurements reported in US20090048160A1, “Antimicrobial activity of bovine bactericidal/permeability-increasing protein (BPI)-derived peptides against Gram-negative bacterial mastitis isolates” (priority 2007, published 2009).
≈ marks a conversion by molar mass, not a printed value. Read-outs that look alike come from different tables or passages of the source.

What was measured:
Klebsiella pneumoniae = assay: microbe, parasite or virus in culture; type: cell-based; settings: Klebsiella pneumoniae, read-out: MIC
Description: (§1) Bacterial isolates of Escherichia coli, Klebsiella pneumonia, Serratia marcescens, Pseudomonas aeruginosa, Enterobacter cloacae, and Enterobacter aerogenes, which were obtained from clinical cases of bovine mastitis, were used to assess the bactericidal activity of peptides in a broth microdilution assay. Isolates were obtained from repositories at Cornell University (gift of Dr. Y. H. Schukken; Quality Milk Production Services Program, Cornell University, Ithaca N.Y.) and the USDA Beltsville Agricultural Research Center. […] A. J. Bramley, Institute for Animal Health, Compton Laboratory, Newbury, England), which was originally isolated from a clinical case of mastitis ([…]. Dairy Res. 43: 205-211) was also used to assess the bactericidal activity of the peptides in biological fluids. Reference strains of E. coli (ATCC 25922) and Staphylococcus aureus (ATCC 29213) were obtained from a commercial source (American Type Culture Collection (ATCC), Manassas, Va.). To obtain fresh inoculums for evaluation, a sterile loop of each bacterial glycerol stock was streaked on a blood agar plate. After an overnight incubation at 35° C., a single uniform colony was picked and sub-passaged by streaking on a new blood agar plate and incubating the plate overnight at 35° C. To evaluate the antimicrobial activity of the peptides against various clinical mastitis bacterial isolates, the minimum inhibitory concentration (MIC) and the minimum bactericidal concentration (MBC) of these peptides against the isolates were determined using a standardized broth microdilution assay. In addition to the mastitis isolates, E. coli (ATCC 25922) and S. aureus (ATCC 29213) reference strains were evaluated. […] The assays were performed in accordance with Clinical and Laboratory Standards Institute (CLSI) [formerly National Committee for Clinical Laboratory Standards (NCCLS)] guidelines (National Committee for Clinical Laboratory Standards. 1999. Methods for Determining Bacterial Activity of Antimicrobial Agents: Approved Guideline. Wayne, Pa.; National Committee for Clinical Laboratory Standards. 2002. Performance Standards for Antimicrobial Disk and Dilution Susceptibility Tests for Bacteria Isolated from Animals: Approved Standard. 2nd Edition, Wayne, Pa.). […] The bacterial suspension was then diluted 100-fold in cation-adjusted Mueller-Hinton broth to reach a final inoculum concentration of 10^6 CFU/ml. […] A negative control column was included in the plate that included 100 μl of broth alone. The plates were incubated for 18 h at 35° C. with ambient air circulation and without shaking. The wells were subsequently inspected for cloudiness and pellet formation using a magnifying glass plate reader. The lowest concentration at which no pellet or cloudiness was apparent in a given well was identified as the MIC. […] The plates were incubated overnight at 35° C. and colonies subsequently enumerated. The MBC values were determined as the lowest concentration at which ≧99.9% of inoculated bacteria were killed. All assays were performed in triplicate and the MIC and MBC range reported.

Escherichia coli = assay: microbe, parasite or virus in culture; type: cell-based; settings: Escherichia coli; for MIC: read-out: MIC
Description: as §1

Serratia marcescens = assay: microbe, parasite or virus in culture; type: cell-based; settings: Serratia marcescens, read-out: MIC
Description: as §1

Pseudomonas aeruginosa = assay: microbe, parasite or virus in culture; type: cell-based; settings: Pseudomonas aeruginosa, read-out: MIC
Description: as §1

Staphylococcus aureus = assay: microbe, parasite or virus in culture; type: cell-based; settings: ATCC29213; Staphylococcus aureus ATCC 29213; read-out: MIC
Description: as §1

Enterobacter cloacae = assay: microbe, parasite or virus in culture; type: cell-based
Description: as §1

[1] = system: bacterial LPS derived from E. coli 0111:B4; assay: LPS neutralization, Limulus amebocyte lysate (LAL) assay; type: biochemical; settings: 1 ng LPS
Method: FIG. 1 depicts the mean (±S.E.) percent neutralization of bacterial LPS bioactivity as determined with the Limulus amebocyte lysate assay. Increasing concentrations of peptides or polymixin B were incubated with 1 ng of E. coli-derived LPS for 30 min. Following incubation, the amount of free LPS was determined by extrapolation from a standard curve and the percent of bound (neutralized) LPS was calculated.
The ability of the peptides to neutralize LPS was determined using a commercially available Limulus amebocyte lysate (LAL) assay (Cambrex BioScience Walkersville, Inc., Walkersville, Md.). As a positive control, polymyxin B (Sigma Chemical Co.) was evaluated in parallel with the peptides. Increasing concentrations of peptides or polymyxin B were incubated with 1 ng of highly purified bacterial LPS (Sigma Chemical Co.), derived from E. coli 0111:B4, in a 500 μl reaction volume of endotoxin-free water for 30 min at 37° C. while shaking at 100 rpm. Following the incubation, the amount of free LPS was determined in each sample according to the manufacturer's instructions. Briefly, 50 μl of the above mixture was placed into a 96-well microtiter plate and the reaction initiated by the addition of an equal volume of amoebocyte lysate. Following an incubation at 37° C. for 10 min, 100 μl of chromogenic substrate was added and the plate incubated for 5-10 min at 37° C. The reaction was stopped by the addition of 50 μl of glacial acetic acid and the absorbance measured at a wavelength of 405 nm on a microplate reader (Biotec Instruments, Inc., Winooski, Vt.). The amount of non-bound LPS was extrapolated from a standard curve and the percent inhibition calculated according to the following formula: […]
To determine whether the bBPI peptides were able to neutralize LPS, increasing concentrations of the peptides were incubated with LPS (1 ng) and the resulting mixture assayed with the LAL assay (FIG. 1). As a positive and negative control, respectively, polymyxin B and a non-BPI-derived peptide were also assayed. […] In contrast, bBPI142-169 and bBPI90-99,148-161 were able to neutralize ≧93% of LPS activity at peptide concentrations of 30 and 100 μg/ml, respectively.

CN(C)[C@@H]1C(O)=C(C(N)=O)C(=O)[C@@]2(O)C(O)=C3C(=O)c4c(O)cccc4[C@@](C)(O)[C@H]3C[C@@H]12 [Tetracycline, reference compound]
MIC (Klebsiella pneumoniae; Klebsiella pneumoniae Isolate #1): 64 µg/mL (≈ 144 µM) | MIC (Klebsiella pneumoniae; Klebsiella pneumoniae Isolate #3): 1 µg/mL (≈ 2.25 µM) | MIC (Klebsiella pneumoniae; Klebsiella pneumoniae Isolate #4): 64 µg/mL (≈ 144 µM) | MIC (Klebsiella pneumoniae; Klebsiella pneumoniae Isolate #5): 16 µg/mL (≈ 36 µM) | MIC (Klebsiella pneumoniae; Klebsiella pneumoniae Isolate #6): 0.5 µg/mL (≈ 1.13 µM) | MBC (Escherichia coli; ATCC25922, Escherichia coli ATCC 25922, read-out: MBC): 64 µg/mL (≈ 144 µM) | MIC (Escherichia coli; ATCC25922, Escherichia coli ATCC 25922): 0.5 to 1 µg/mL (≈ 1.13 to 2.25 µM) | MIC (Escherichia coli; Escherichia coli Isolate #1): 4 µg/mL (≈ 9 µM) | MIC (Escherichia coli; Escherichia coli Isolate #2): 4 µg/mL (≈ 9 µM) | MIC (Escherichia coli; Escherichia coli Isolate #3): 4 µg/mL (≈ 9 µM) | MIC (Escherichia coli; Escherichia coli Isolate #4): 4 µg/mL (≈ 9 µM) | MIC (Escherichia coli; Escherichia coli Isolate #5): 4 µg/mL (≈ 9 µM) | MIC (Escherichia coli; Escherichia coli Strain P4): 1 µg/mL (≈ 2.25 µM) | MIC (Serratia marcescens; Serratia marcescens Isolate #1): 32 µg/mL (≈ 72 µM) | MIC (Serratia marcescens; Serratia marcescens Isolate #2): 64 µg/mL (≈ 144 µM) | MIC (Serratia marcescens; Serratia marcescens Isolate #3): 64 µg/mL (≈ 144 µM) | MIC (Serratia marcescens; Serratia marcescens Isolate #4): 64 µg/mL (≈ 144 µM) | MIC (Serratia marcescens; Serratia marcescens Isolate #5): 64 µg/mL (≈ 144 µM) | MIC (Serratia marcescens; Serratia marcescens Isolate #6): 64 µg/mL (≈ 144 µM) | MIC (Pseudomonas aeruginosa; Pseudomonas aeruginosa Isolate #1): 32 µg/mL (≈ 72 µM) | MIC (Pseudomonas aeruginosa; Pseudomonas aeruginosa Isolate #2): 16 µg/mL (≈ 36 µM) | MIC (Pseudomonas aeruginosa; Pseudomonas aeruginosa Isolate #3): 32 µg/mL (≈ 72 µM) | MIC (Pseudomonas aeruginosa; Pseudomonas aeruginosa Isolate #4): 16 µg/mL (≈ 36 µM) | MIC (Pseudomonas aeruginosa; Pseudomonas aeruginosa Isolate #5): 32 µg/mL (≈ 72 µM) | MIC (Pseudomonas aeruginosa; Pseudomonas aeruginosa Isolate #6): 16 µg/mL (≈ 36 µM) | MIC (Staphylococcus aureus): 0.25 to 0.5 µg/mL (≈ 0.563 to 1.13 µM) | MIC (Enterobacter cloacae; Enterobacter cloacae Isolate #2, read-out: MIC): 4 µg/mL (≈ 9 µM) | MIC (Enterobacter cloacae; Enterobacter cloacae Isolate #4): 4 µg/mL (≈ 9 µM)

MCHWAGGASNTGDARGDV FGKQAG (MCHWAGGASNTGDARGDVFGKQAG; listed as Bos sp.) [control peptide, non-BPI-derived control peptide provided by the peptide synthesis company; negative control, reference compound]
inhibition of LPS activity ([1]; 100 μg/ml, 30 min): no inhibitory effect

polymyxin B [reference compound]
inhibition of LPS activity (in words) ([1]; increasing concentrations): inhibited LPS activity in dose-dependent manner
